Patent US20100093745A1, “THERAPEUTIC AGENT OR PROPHYLACTIC AGENT FOR DEMYELINATING DISEASE COMPRISING AMINO ALCOHOL DERIVATIVE AS ACTIVE INGREDIENT” (priority 2007, published 2010)

Test system: Mouse Experimental Autoimmune Encephalomyelitis (EAE) Model
Test: Effect on a mouse experimental autoimmune encephalomyelitis (EAE) model
Assay type: in vivo
Conditions: MBP-immunized mice, oral, once a day from the 5th day to 41st day after the immunization

C[C@](N)(CO)CCCc1ccc(Sc2cccc(C(F)(F)F)c2)cc1Cl.Cl [compound 27, (R)-2-amino-5-[2-chloro-4-(3-trifluoromethylphenylthio)phenyl]-2-methylpentan-1-ol hydrochloride]
administration dose showing maximum reaction (onset inhibition): 0.3 mg/kg
onset of disease (clinical symptom score, total score) (0.01 to 0.3 mg/kg, FIG. 1 and FIG. 2): inhibited the onset of disease dose-dependently
